Results published in PMC10088252.
Where “and” joins values, the source holds several entries; their conditions need not be identical. Equal entries are not always repeated. Where two headings read alike, the source gives them in different places.

Columns and labels:
Assay type in all cases: in vivo, human
[1] = system: locally advanced or metastatic NSCLC harboring c-MET overexpression or MET exon 14 skipping mutation
Experimental: Patients enrolled in this study were divided into two parts. […] Patients with pre-existing c-MET overexpression at hospital diagnosis were also included in Part A. In Part B, patients in the 400 mg bis in die (BID) dose cohort, blood and tissue samples were collected to perform NGS to determine the MET exon 14 skipping mutation. Patients harboring pre-existing MET exon 14 skipping mutation at hospital diagnosis were also enrolled into Part B. […] Statistical analyses were performed using SAS version 9.4 (SAS Institute, Cary, NC, USA). Age was expressed as median (range), and categorical variables were expressed as frequency (percentage). The 95% CIs of ORR and DCR were calculated using Clopper-Pearson method. […] No imputation method was performed for missing data.

[2] = Plasma PK after multiple doses for 28 days, Part A (PKAS), routine PK analysis
Experimental: Serial peripheral blood samples were collected at pre-dose on Cycle 1 Day 8, Cycle 1 Day 15 and Cycle 1 Day 22 for the trough concentration (Ctrough) obtained during the dosing interval. […] After Cycle 1, the Ctrough was measured every 4 or 8 or 12 weeks. The whole blood (3 mL) was taken intravenously and placed in sodium heparin tubes, gently turned over 15 times, and centrifuged within 1 h (4 °C 3000 rpm for 10 min). Two portions of the centrifuged upper plasma should be transferred to 1.5 mL centrifuge tubes with identification labels and stored at -80 °C. The following PK parameters were assessed: time to maximum plasma concentration at steady state (Tmax,ss), overall body clearance at steady state for extravascular dosage (CLss/F), terminal half-life (T1/2), plasma Ctrough observed in Cycle 1 at steady state, total volume of drug distribution at steady state according to the terminal phase (Vz,ss/F), AUC over a dosing interval (AUCtau), ratio of metabolites to parent drug calculated based on AUCtau (MP ratio).
Statistical analyses were performed using SAS version 9.4 (SAS Institute, Cary, NC, USA). Age was expressed as median (range), and categorical variables were expressed as frequency (percentage). The 95% CIs of ORR and DCR were calculated using Clopper-Pearson method. The 95% CIs of PFS and OS were calculated using Brookmeyer-Crowley method. PK parameters were expressed as mean (standard deviation) or median (range), and analyzed using Phoenix version 8.0 (Certara, LP, Princeton, NJ, USA). No imputation method was performed for missing data.

[3] = Plasma PK from sparse data, population PK analysis without PK modeling; details: 28 days
Experimental: A total of 21 patients in Part A were included in PKAS. […] The mean T1/2 of M1 ranged from 19.8 h to 21.8 h. For M2-2, its mean T1/2 was not able to estimate in the 450 mg QD and 600 mg QD cohorts, and 21.3 h in the 300 mg QD cohort. The MP ratio calculated based on AUCtau ranged from 6.0 to 9.1 for M1, and ranged from 4.1 to 5.7 for M2-2.

O=C(Nc1ccc(Oc2ccnc3c2CCN3)c(F)c1)c1c[nH]cc(-c2ccc(F)cc2)c1=O
BOR CR ([1]; 300 mg QD (n=12)): 0 n (%)
BOR NE (patients not evaluable) ([1]; 300 mg QD (n=12)): 0 n (%)
BOR PD ([1]; 300 mg QD (n=12)): 7 (58.3) n (%)
BOR PR ([1]; 300 mg QD (n=12)): 0 n (%)
BOR SD ([1]; 300 mg QD (n=12)): 5 (41.7) n (%)
DCR (95% CI) ([1]; 300 mg QD (n=12)): 41.7% and 41.7 (15.2, 72.3) %
ORR (95% CI) ([1]; 300 mg QD (n=12)): 0 (0, 26.5) %
PFS, median (95% CI) ([1]; 300 mg QD (n=12)): 1.9 months and 1.9 (1.9, 5.6) months
BOR CR ([1]; 400 mg BID (n=4)): 0 n (%)
BOR PD ([1]; 400 mg BID (n=4)): 0 n (%)
BOR PR ([1]; 400 mg BID (n=4)): 0 n (%)
BOR CR ([1]; 450 mg QD (n=12)): 0 n (%)
BOR PD ([1]; 450 mg QD (n=12)): 6 (50.0) n (%)
BOR PR ([1]; 450 mg QD (n=12)): 0 n (%)
BOR SD ([1]; 450 mg QD (n=12)): 4 (33.3) n (%)
DCR (95% CI) ([1]; 450 mg QD (n=12)): 33.3% and 33.3 (9.9, 65.1) %
ORR (95% CI) ([1]; 450 mg QD (n=12)): 0 (0, 26.5) %
OS, median (95% CI) ([1]; 450 mg QD (n=12)): 9.3 months and 9.3 (2.6, NE) months
PFS, median (95% CI) ([1]; 450 mg QD (n=12)): 1.9 months and 1.9 (1.1, 3.8) months
BOR CR ([1]; 600 mg QD (n=10)): 0 n (%)
BOR PD ([1]; 600 mg QD (n=10)): 2 (20.0) n (%)
BOR SD ([1]; 600 mg QD (n=10)): 3 (30.0) n (%)
DCR (95% CI) ([1]; 600 mg QD (n=10)): 40.0% and 40.0 (12.2, 73.8) %
ORR (95% CI) ([1]; 600 mg QD (n=10)): 10.0 (0.3, 44.5) %
PFS, median (95% CI) ([1]; 600 mg QD (n=10)): 1.8 months and 1.8 (1.2, 3.9) months
ORR ([1]; Part A (n=34), c-MET overexpression): 2.9%
DCR (95% CI) ([1]; Part B, 400 mg BID (n=4)): 75.0% and 75.0 (19.4, 99.4) %
ORR (95% CI) ([1]; Part B, 400 mg BID (n=4)): 0% and 0 (0, 60.2) %
PFS, median (95% CI) ([1]; Part B, 400 mg BID (n=4)): 3.4 months and 3.4 (3.2, 3.7) months
BOR CR ([1]; Total (n=38)): 0 n (%)
BOR PD ([1]; Total (n=38)): 15 (39.5) n (%)
BOR SD ([1]; Total (n=38)): 15 (39.5%) n (%) and 15 (39.5) n (%)
DCR (95% CI) ([1]; Total (n=38)): 42.1% and 42.1 (26.3, 59.2) %
ORR (95% CI) ([1]; Total (n=38)): 2.6% and 2.6 (0.1, 13.8) %
OS, median (95% CI) ([1]; Total (n=38)): 10.3 months and 10.3 (7.3, NE) months
PFS, median (95% CI) ([1]; Total (n=38)): 1.9 months and 1.9 (1.9, 3.7) months
AUCtau, mean (SD) ([2]; 300 mg QD (n=7), 28 days): 7680.0 (4120.0) h × ng/mL
CLss/F, mean (SD) ([2]; 300 mg QD (n=7), 28 days): 50.4 (25.6) L/h
Cmax,ss, mean (SD) ([2]; 300 mg QD (n=7), 28 days): 794.0 (370.0) ng/mL
Cmin,ss, mean (SD) ([2]; 300 mg QD (n=7), 28 days): 104.0 (49.0) ng/mL
Ctrough, mean (SD) ([2]; 300 mg QD (n=7), 28 days): 113.5 (55.0) ng/mL
T1/2, mean (SD) ([2]; 300 mg QD (n=7), 28 days): 11.2 (2.8) h
Tmax,ss, mean (SD) ([2]; 300 mg QD (n=7), 28 days): 3.9 (2.0) h
Vz,ss/F, mean (SD) ([2]; 300 mg QD (n=7), 28 days): 781.0 (357.0) L
AUCtau, mean (SD) ([2]; 450 mg QD (n=7), 28 days): 11,000.0 (5970.0) h × ng/mL
CLss/F, mean (SD) ([2]; 450 mg QD (n=7), 28 days): 57.6 (39.5) L/h
Cmax,ss, mean (SD) ([2]; 450 mg QD (n=7), 28 days): 932.0 (480.0) ng/mL
Cmin,ss, mean (SD) ([2]; 450 mg QD (n=7), 28 days): 168.0 (127.0) ng/mL
Ctrough, mean (SD) ([2]; 450 mg QD (n=7), 28 days): 184.1 (131.2) ng/mL
T1/2, mean (SD) ([2]; 450 mg QD (n=7), 28 days): 11.8 (4.8) h
Tmax,ss, mean (SD) ([2]; 450 mg QD (n=7), 28 days): 4.0 (1.0) h
Vz,ss/F, mean (SD) ([2]; 450 mg QD (n=7), 28 days): 1050.0 (974.0) L
AUCtau, mean (SD) ([2]; 600 mg QD (n=7), 28 days): 10,100.0 (5350.0) h × ng/mL
CLss/F, mean (SD) ([2]; 600 mg QD (n=7), 28 days): 83.2 (58.9) L/h
Cmax,ss, mean (SD) ([2]; 600 mg QD (n=7), 28 days): 788.0 (394.0) ng/mL
Cmin,ss, mean (SD) ([2]; 600 mg QD (n=7), 28 days): 157.0 (89.6) ng/mL
Ctrough, mean (SD) ([2]; 600 mg QD (n=7), 28 days): 203.9 (99.2) ng/mL
T1/2, mean (SD) ([2]; 600 mg QD (n=7), 28 days): 12.7 (4.8) h
Tmax,ss, mean (SD) ([2]; 600 mg QD (n=7), 28 days): 3.9 (2.0) h
Vz,ss/F, mean (SD) ([2]; 600 mg QD (n=7), 28 days): 1780.0 (2080.0) L
Ctrough, mean (SD) ([2]; Cycle 1 Day 8 (192 h), 300 mg QD (n=7)): 163.0 (241.5) ng/mL
Ctrough, mean (SD) ([2]; Cycle 1 Day 8 (192 h), 450 mg QD (n=7)): 178.1 (128.0) ng/mL
Ctrough, mean (SD) ([2]; Cycle 1 Day 8 (192 h), 600 mg QD (n=7)): 165.6 (66.6) ng/mL
Ctrough, mean (SD) ([2]; Cycle 1 Day 15 (360 h), 300 mg QD (n=7)): 161.5 (126.3) ng/mL
Ctrough, mean (SD) ([2]; Cycle 1 Day 15 (360 h), 450 mg QD (n=7)): 216.5 (111.8) ng/mL
Ctrough, mean (SD) ([2]; Cycle 1 Day 15 (360 h), 600 mg QD (n=7)): 188.7 (67.3) ng/mL
Ctrough, mean (SD) ([2]; Cycle 1 Day 22 (528 h), 300 mg QD (n=7)): 124.2 (126.2) ng/mL
Ctrough, mean (SD) ([2]; Cycle 1 Day 22 (528 h), 450 mg QD (n=7)): 236.3 (83.4) ng/mL
Ctrough, mean (SD) ([2]; Cycle 1 Day 22 (528 h), 600 mg QD (n=7)): 164.1 (65.7) ng/mL
median Tmax,ss ([2]; among 300, 450, 600 mg QD cohorts, 28 days): 4.0 h
time to steady state ([2]; continuous administration): seven
AUCtau, mean (SD) ([3]; 300 mg QD (n=4)): 7420.0 (3120.0) h×ng/mL
CLss/F, mean (SD) ([3]; 300 mg QD (n=4)): 46.2 (18.7) L/h
Cmax,ss, mean (SD) ([3]; 300 mg QD (n=4)): 601.0 (189.0) ng/mL
Cmin,ss, mean (SD) ([3]; 300 mg QD (n=4)): 89.1 (56.3) ng/mL
Ctrough, mean (SD) ([3]; 300 mg QD (n=4)): 94.1 (79.0) ng/mL
T1/2, mean (SD) ([3]; 300 mg QD (n=4)): 9.1 (1.7) h
Tmax,ss, mean (SD) ([3]; 300 mg QD (n=4)): 4.0 (2.0) h
Vz,ss/F, mean (SD) ([3]; 300 mg QD (n=4)): 685.0 (196.0) L
AUCtau, mean (SD) ([3]; 450 mg QD (n=5)): 6350.0 (2710.0) h×ng/mL
CLss/F, mean (SD) ([3]; 450 mg QD (n=5)): 77.9 (33.2) L/h
Cmax,ss, mean (SD) ([3]; 450 mg QD (n=5)): 470.0 (83.3) ng/mL
Cmin,ss, mean (SD) ([3]; 450 mg QD (n=5)): 151.0 (77.5) ng/mL
Ctrough, mean (SD) ([3]; 450 mg QD (n=5)): 167.0 (100.5) ng/mL
T1/2, mean (SD) ([3]; 450 mg QD (n=5)): 10.3 (NE) h
Tmax,ss, mean (SD) ([3]; 450 mg QD (n=5)): 5.1 (2.0) h
Vz,ss/F, mean (SD) ([3]; 450 mg QD (n=5)): 1500.0 (NE) L
AUCtau, mean (SD) ([3]; 600 mg QD (n=2)): 6980.0 (NE) h×ng/mL
CLss/F, mean (SD) ([3]; 600 mg QD (n=2)): 86.0 (NE) L/h
Cmax,ss, mean (SD) ([3]; 600 mg QD (n=2)): 758.0 (NE) ng/mL
Cmin,ss, mean (SD) ([3]; 600 mg QD (n=2)): 80.3 (NE) ng/mL
Ctrough, mean (SD) ([3]; 600 mg QD (n=2)): 201.1 (166.4) ng/mL
T1/2, mean (SD) ([3]; 600 mg QD (n=2)): 9.6 (NE) h
Tmax,ss, mean (SD) ([3]; 600 mg QD (n=2)): 3.0 (NE) h
Vz,ss/F, mean (SD) ([3]; 600 mg QD (n=2)): 1180.0 (NE) L
